In patent publication US20120122860A1, “SOLID FORMS OF SULFONAMIDES AND AMINO ACIDS” (Plexxikon, Inc., priority 2009, published 2012):

Columns and labels:
[1] = target: Fms (Homo sapiens, UniProt P07333); experiment: Kinase activity assay, Fms
[2] = target: B-Raf V600E (Homo sapiens, UniProt P15056, V600E); experiment: Kinase activity assay, B-Raf V600E; assay type: biochemical; conditions: read-out: activity toward kinase B-Raf V600E, IC50
[3] = target: Src (Homo sapiens, UniProt P12931); experiment: Kinase activity assay, Src
[4] = target: Kdr (Homo sapiens, UniProt P35968); experiment: Kinase activity assay, Kdr
Sequence of Kdr (P35968 20-1356): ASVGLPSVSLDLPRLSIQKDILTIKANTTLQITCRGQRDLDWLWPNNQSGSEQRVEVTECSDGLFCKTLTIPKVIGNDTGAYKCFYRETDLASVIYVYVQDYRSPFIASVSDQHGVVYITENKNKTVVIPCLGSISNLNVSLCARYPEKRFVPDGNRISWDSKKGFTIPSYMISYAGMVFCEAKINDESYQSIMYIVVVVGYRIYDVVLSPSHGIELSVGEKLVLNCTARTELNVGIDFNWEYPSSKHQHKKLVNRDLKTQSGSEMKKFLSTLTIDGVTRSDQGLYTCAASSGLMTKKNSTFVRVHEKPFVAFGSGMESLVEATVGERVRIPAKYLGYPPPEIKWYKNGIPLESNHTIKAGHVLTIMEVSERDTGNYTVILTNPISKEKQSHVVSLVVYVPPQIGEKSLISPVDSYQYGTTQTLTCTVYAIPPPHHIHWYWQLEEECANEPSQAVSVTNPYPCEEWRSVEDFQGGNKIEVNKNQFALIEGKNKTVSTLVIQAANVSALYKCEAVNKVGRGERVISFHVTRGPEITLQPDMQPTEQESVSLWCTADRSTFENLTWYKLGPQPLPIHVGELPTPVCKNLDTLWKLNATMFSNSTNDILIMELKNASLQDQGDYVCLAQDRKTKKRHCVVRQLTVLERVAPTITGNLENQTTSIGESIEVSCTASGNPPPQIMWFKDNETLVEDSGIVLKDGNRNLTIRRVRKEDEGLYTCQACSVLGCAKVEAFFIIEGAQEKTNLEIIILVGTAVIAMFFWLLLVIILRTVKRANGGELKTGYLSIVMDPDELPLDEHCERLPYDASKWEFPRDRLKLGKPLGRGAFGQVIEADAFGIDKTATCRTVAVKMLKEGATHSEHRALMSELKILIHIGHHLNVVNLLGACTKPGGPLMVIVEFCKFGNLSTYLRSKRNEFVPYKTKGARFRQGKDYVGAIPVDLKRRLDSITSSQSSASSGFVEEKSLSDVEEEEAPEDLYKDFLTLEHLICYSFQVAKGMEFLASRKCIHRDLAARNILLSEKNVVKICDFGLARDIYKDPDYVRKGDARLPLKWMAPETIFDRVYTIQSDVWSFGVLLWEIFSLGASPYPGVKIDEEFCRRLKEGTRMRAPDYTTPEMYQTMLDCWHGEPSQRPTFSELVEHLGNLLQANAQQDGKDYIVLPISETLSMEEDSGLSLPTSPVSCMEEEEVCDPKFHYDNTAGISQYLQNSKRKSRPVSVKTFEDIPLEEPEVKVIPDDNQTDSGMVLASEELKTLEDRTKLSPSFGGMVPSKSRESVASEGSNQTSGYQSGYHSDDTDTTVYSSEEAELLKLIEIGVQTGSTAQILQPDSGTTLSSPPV

[5] = target: C-Raf (Homo sapiens, UniProt P04049); experiment: Kinase activity assay, C-Raf
Sequence of C-Raf (P04049 whole entry): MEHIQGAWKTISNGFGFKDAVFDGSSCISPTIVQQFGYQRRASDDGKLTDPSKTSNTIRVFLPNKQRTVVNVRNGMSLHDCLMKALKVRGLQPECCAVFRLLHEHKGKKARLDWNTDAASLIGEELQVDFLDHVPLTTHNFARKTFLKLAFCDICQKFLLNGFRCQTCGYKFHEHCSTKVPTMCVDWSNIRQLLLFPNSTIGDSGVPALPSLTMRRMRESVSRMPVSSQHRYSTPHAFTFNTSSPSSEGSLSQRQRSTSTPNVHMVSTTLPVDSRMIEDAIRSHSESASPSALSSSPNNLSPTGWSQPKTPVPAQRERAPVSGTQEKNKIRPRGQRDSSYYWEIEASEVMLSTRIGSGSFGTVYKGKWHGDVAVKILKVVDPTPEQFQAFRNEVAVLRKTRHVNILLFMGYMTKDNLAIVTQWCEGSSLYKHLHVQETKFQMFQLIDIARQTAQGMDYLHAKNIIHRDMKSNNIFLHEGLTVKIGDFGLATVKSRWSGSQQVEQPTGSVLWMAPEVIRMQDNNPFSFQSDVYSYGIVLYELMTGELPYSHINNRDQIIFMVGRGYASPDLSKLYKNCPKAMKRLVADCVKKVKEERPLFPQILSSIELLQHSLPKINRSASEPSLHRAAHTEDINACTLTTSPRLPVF

[6] = target: Btk (Homo sapiens, UniProt Q06187); experiment: Kinase activity assay, Btk
Sequence of Btk (Q06187 whole entry): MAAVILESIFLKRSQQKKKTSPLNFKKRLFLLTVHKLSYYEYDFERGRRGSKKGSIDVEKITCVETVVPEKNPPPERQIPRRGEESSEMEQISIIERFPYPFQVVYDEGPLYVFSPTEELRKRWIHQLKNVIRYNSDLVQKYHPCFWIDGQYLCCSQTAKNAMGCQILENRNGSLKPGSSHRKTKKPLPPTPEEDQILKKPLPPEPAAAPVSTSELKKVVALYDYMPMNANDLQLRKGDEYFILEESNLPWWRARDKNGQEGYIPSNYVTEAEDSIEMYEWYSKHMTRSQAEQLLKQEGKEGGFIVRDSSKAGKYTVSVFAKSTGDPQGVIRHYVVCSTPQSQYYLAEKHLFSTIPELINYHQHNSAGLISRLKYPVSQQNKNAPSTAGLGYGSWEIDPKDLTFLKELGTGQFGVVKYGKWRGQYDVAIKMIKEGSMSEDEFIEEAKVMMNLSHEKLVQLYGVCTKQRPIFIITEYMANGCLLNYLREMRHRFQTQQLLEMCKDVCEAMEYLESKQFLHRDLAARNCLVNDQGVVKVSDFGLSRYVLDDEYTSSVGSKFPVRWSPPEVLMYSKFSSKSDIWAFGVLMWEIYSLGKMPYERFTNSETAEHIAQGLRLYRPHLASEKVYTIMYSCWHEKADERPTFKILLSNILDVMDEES

[7] = target: Kit (Homo sapiens, UniProt P10721); experiment: Kinase activity assay, Kit
[8] = target: B-Raf (Homo sapiens, UniProt P15056); experiment: Kinase activity assay, B-Raf; assay type: biochemical; conditions: read-out: activity toward kinase B-Raf, IC50
Sequence of B-Raf (P15056 whole entry): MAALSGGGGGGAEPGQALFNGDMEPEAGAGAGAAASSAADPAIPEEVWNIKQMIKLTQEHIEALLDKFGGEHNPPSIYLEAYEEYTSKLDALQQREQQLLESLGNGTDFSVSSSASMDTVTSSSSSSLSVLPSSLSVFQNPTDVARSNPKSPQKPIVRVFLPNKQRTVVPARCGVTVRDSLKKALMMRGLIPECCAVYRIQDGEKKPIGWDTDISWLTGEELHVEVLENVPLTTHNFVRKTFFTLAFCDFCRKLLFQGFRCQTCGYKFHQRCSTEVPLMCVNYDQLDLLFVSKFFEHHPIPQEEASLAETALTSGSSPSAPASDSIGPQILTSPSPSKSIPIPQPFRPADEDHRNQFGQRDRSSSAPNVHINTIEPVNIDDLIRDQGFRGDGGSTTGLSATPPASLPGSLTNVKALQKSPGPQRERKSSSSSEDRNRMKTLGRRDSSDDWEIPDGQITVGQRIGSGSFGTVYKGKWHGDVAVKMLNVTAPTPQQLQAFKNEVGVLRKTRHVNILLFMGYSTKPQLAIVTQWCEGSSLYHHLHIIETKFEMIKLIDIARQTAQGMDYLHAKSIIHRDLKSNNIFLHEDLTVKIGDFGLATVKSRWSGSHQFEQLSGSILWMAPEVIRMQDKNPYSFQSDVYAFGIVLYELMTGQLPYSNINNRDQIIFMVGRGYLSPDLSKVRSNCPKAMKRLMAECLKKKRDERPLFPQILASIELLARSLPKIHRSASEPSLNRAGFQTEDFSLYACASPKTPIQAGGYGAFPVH

[9] = target: MAP4K4 (Homo sapiens, UniProt O95819); experiment: Kinase activity assay, MAP4K4
Sequence of MAP4K4 (O95819 whole entry): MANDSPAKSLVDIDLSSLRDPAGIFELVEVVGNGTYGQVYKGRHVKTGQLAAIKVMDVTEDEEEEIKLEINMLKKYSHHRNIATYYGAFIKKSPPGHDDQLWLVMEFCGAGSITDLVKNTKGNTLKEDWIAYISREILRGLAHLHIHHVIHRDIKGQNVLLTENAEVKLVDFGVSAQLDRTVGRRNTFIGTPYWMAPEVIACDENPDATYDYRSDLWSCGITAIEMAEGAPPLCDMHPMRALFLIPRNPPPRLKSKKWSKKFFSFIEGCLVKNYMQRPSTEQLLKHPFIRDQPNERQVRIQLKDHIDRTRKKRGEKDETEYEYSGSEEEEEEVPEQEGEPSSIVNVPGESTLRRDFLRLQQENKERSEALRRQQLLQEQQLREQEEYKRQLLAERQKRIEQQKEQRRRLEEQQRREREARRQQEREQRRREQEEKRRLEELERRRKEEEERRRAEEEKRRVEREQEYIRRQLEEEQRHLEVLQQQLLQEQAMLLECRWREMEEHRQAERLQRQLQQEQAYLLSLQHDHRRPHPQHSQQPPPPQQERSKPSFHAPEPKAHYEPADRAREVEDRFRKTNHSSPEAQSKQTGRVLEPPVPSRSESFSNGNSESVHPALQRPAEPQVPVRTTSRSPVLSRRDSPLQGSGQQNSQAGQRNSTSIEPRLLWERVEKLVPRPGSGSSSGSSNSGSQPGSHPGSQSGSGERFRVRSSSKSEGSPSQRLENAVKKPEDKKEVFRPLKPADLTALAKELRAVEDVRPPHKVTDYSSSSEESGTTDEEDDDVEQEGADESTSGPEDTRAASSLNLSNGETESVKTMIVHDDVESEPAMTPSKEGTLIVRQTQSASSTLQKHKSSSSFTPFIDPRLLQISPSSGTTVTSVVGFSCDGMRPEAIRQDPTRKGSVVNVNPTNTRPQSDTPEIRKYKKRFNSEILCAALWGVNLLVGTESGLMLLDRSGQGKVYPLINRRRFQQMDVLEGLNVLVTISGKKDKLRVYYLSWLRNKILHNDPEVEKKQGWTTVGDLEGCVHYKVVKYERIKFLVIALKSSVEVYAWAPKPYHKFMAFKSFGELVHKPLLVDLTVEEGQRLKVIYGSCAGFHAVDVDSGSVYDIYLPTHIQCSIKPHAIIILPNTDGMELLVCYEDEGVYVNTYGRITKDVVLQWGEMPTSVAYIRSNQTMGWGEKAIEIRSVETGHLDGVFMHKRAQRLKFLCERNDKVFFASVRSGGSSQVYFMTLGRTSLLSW

Measured: IC50

Sequence of B-Raf V600E (P15056 whole entry V600E): as the sequence (P15056 whole entry) above, with V600E counted along it

Cn1cc(-c2cnc3[nH]cc(C(=O)c4cc(NS(=O)(=O)c5cccc(C(F)(F)F)c5)ccc4F)c3c2)cn1 [P-2101, N-{4-Fluoro-3-[5-(1-methyl-1H-pyrazol-4-yl)-1H-pyrrolo[2,3-b]pyridine-3-carbonyl]-phenyl}-3-trifluoromethyl-benzenesulfonamide]
not listed: [9]
≤ 10 µM: all other assays above

Cn1cc(-c2cnc3[nH]cc(C(=O)c4cc(NS(=O)(=O)c5cccc(Cl)c5)ccc4F)c3c2)cn1 [P-2103, 3-Chloro-N-{4-fluoro-3-[5-(1-methyl-1H-pyrazol-4-yl)-1H-pyrrolo[2,3-b]pyridine-3-carbonyl]-phenyl}-benzenesulfonamide]
not listed: [5] | [9]
≤ 10 µM: all other assays above

CCCS(=O)(=O)Nc1ccc(F)c(C(=O)c2c[nH]c3ncc(-c4ccc(OCCCN(C)C)nc4)cc23)c1F [P-2178, Propane-1-sulfonic acid (3-{5-[6-(3-dimethylamino-propoxy)-pyridin-3-yl]-1H-pyrrolo[2,3-b]pyridine-3-carbonyl}-2,4-difluoro-phenyl)-amide]
not listed: [9]
≤ 10 µM: all other assays above

CCCS(=O)(=O)Nc1ccc(F)c(C(=O)c2c[nH]c3ncc(-c4ccc(OC)nc4OC)cc23)c1F [P-2184, Propane-1-sulfonic acid {3-[5-(2,6-dimethoxy-pyridin-3-yl)-1H-pyrrolo[2,3-b]pyridine-3-carbonyl]-2,4-difluoro-phenyl}-amide]
not listed: [5] | [9]
≤ 10 µM: all other assays above

CCCS(=O)(=O)Nc1ccc(F)c(C(=O)c2c[nH]c3ncc(-c4cnn(Cc5ccccc5)c4)cc23)c1F [P-2190, Propane-1-sulfonic acid {3-[5-(1-benzyl-1H-pyrazol-4-yl)-1H-pyrrolo[2,3-b]pyridine-3-carbonyl]-2,4-difluoro-phenyl}-amide]
not listed: [5] | [9]
≤ 10 µM: all other assays above

CCCS(=O)(=O)Nc1ccc(F)c(C(=O)c2c[nH]c3ncc(-c4ccc(S(N)(=O)=O)cc4)cc23)c1F [P-2194, 4-{3-[2,6-Difluoro-3-(propane-1-sulfonylamino)-benzoyl]-1H-pyrrolo[2,3-b]pyridin-5-yl}-benzenesulfonamide]
not listed: [5] | [9]
≤ 10 µM: all other assays above

CCCS(=O)(=O)Nc1ccc(F)c(C(=O)c2c[nH]c3ncc(-c4ccc(C#CCN(CC)CC)nc4)cc23)c1F [P-2222, Propane-1-sulfonic acid (3-{5-[6-(3-diethylamino-prop-1-ynyl)-pyridin-3-yl]-1H-pyrrolo[2,3-b]pyridine-3-carbonyl}-2,4-difluoro-phenyl)-amide]
≤ 10 µM: all assays above

CCCS(=O)(=O)Nc1ccc(F)c(C(=O)c2c[nH]c3ncc(-c4ccc(N(C)C)nc4)cc23)c1F [P-2229, Propane-1-sulfonic acid {3-[5-(6-dimethylamino-pyridin-3-yl)-1H-pyrrolo[2,3-b]pyridine-3-carbonyl]-2,4-difluoro-phenyl}-amide]
not listed: [1]
≤ 10 µM: all other assays above

CCS(=O)(=O)Nc1ccc(F)c(C(=O)c2c[nH]c3ncc(-c4ccc(F)cc4)cc23)c1F [P-2270, Ethanesulfonic acid {2,4-difluoro-3-[5-(4-fluoro-phenyl)-1H-pyrrolo[2,3-b]pyridine-3-carbonyl]-phenyl}-amide]
not listed: [5]
≤ 10 µM: all other assays above

O=C(c1c(F)ccc(NS(=O)(=O)C2CC2)c1F)c1c[nH]c2ncc(-c3ccc(Cl)cc3)cc12 [P-2350, Cyclopropanesulfonic acid {3-[5-(4-chloro-phenyl)-1H-pyrrolo[2,3-b]pyridine-3-carbonyl]-2,4-difluoro-phenyl}-amide]
not listed: [2] | [8] | [9]
≤ 10 µM: all other assays above

O=C(c1c(F)ccc(NS(=O)(=O)C2CC2)c1F)c1c[nH]c2ncc(-c3ccc(F)cc3)cc12 [P-2351, Cyclopropanesulfonic acid {2,4-difluoro-3-[5-(4-fluoro-phenyl)-1H-pyrrolo[2,3-b]pyridine-3-carbonyl]-phenyl}-amide]
not listed: [5] | [9]
≤ 10 µM: all other assays above

CCCS(=O)(=O)Nc1ccc(F)c(C(=O)c2c[nH]c3ncc(-c4cnn(C)c4)cc23)c1 [P-2431, Propane-1-sulfonic acid {4-fluoro-3-[5-(1-methyl-1H-pyrazol-4-yl)-1H-pyrrolo[2,3-b]pyridine-3-carbonyl]-phenyl}-amide]
not listed: [9]
≤ 10 µM: all other assays above

O=C(c1cccc(NS(=O)(=O)C2CCCCC2)c1)c1c[nH]c2ncc(F)cc12 [P-2462, Cyclohexanesulfonic acid [3-(5-fluoro-1H-pyrrolo[2,3-b]pyridine-3-carbonyl)-phenyl]-amide]
≤ 10 µM: [9] | [6]
